This assay has as its target T1, human HSL (Homo sapiens, UniProt Q05469).
T1 construct: generate a full length human HSL ORF with a 3′-His6 tag; made in house; host or cells: High 5 insect cells (baculovirus, pFast-BAC)
T1 sequence (Q05469 1-1076): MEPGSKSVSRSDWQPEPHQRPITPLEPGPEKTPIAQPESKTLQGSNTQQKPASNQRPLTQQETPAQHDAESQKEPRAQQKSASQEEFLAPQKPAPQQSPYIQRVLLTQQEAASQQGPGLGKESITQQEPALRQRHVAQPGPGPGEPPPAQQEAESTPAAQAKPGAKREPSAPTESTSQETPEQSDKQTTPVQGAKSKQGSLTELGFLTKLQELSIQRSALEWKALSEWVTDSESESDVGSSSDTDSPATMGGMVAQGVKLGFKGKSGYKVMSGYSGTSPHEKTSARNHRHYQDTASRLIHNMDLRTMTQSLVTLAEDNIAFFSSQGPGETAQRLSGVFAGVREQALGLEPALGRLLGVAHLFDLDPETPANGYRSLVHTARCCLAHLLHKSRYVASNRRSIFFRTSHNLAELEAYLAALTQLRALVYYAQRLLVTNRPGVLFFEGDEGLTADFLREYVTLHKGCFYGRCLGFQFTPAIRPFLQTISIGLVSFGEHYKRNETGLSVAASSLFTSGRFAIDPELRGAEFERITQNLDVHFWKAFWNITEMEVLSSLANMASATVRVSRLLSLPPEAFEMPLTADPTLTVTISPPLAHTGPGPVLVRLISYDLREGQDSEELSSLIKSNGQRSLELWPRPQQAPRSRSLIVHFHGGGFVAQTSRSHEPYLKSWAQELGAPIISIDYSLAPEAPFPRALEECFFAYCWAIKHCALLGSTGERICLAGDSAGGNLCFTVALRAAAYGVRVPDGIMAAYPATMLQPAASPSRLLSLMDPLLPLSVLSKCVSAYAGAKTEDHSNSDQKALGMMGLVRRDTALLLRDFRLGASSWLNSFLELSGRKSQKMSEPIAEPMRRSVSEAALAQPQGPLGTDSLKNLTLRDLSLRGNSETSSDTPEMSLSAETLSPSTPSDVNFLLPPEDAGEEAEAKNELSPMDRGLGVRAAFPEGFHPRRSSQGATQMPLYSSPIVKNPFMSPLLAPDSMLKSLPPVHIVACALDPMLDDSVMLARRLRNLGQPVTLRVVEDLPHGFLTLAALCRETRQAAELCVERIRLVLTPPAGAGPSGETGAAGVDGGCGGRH
The experiment in a line: Human Hormone-Sensitive Lipase (HSL) enzyme inhibition assay (colorimetric, DMPT substrate). The class given is biochemical. The following applies: human full length HSL-His6, 2,3-dimercapto-1-propanol tributyrate substrate, 37° C. 20 minutes, absorbance at 405 nm; read-out: HSL hum IC50. As to the method: Production of Human Full Length Hormone Sensitive Lipase-His^6:
1) Cloning: cDNA was prepared from commercial human brain polyA+ RNA and used as a template in overlapping PCR to generate a full length human HSL ORF with a 3′-His6 tag. This full length insert was cloned into the pFast-BAC vector and the DNA-sequence of several single clones was verified. DNA from a correct full length clone with the 3′His6 tag was used to transform the E. coli strain DH10BAC. Resulting bacmid DNA was used to generate a titered baculovirus stock for protein generation. The sequence of the encoded HSL conforms to Swissprot entry Q05469, with the additional C-terminal His6-tag. 2) Protein purification: Culture: 5.5 L, High 5 cells expressing human full length HSL-His^6, 48 hr., containing 25 μM E-64. Cell count: […], 90% viable. Cells were thawed. On ice, cells were suspended in Base Buffer containing 10% glycerol, 25 mM Tris-Cl, 300 mM NaCl, 10 mM imidazole, 10 mM 2-mercaptoethanol, 2 μg pepstatin/ml, 2 μg leupeptin/ml, 2 μg antipain/ml, pH 8.0 at 4° C. in a final volume of 475 ml with 3.75×10^7 cells/ml. […] was done at 3×30 sec., Lubrol PX was added to 0.2% final concentration followed by stirring for 15 min. at 4° C. and centrifugation at 25 k×g, 60 min., 4° C. Soluble proteins were mixed with 60 ml of pre-washed and equilibrated Ni-NTA Agarose (Qiagen 30210) followed by tumbling end-over-end, 45 min., 4° C., centrifugation 1000 rpm 5 min and letting resin settle 5 min. Supernatant was removed, the resin washed in the centrifuge vessel using 5 volumes of Base Buffer containing 0.2% Lubrol PX. Centrifugation was done again, then the supernatant discarded. The resin was poured onto a 0.8 μm membrane in a disposable filter unit (Nalge 450-0080), and washed with 5 volumes of Base Buffer containing 0.2% Lubrol PX. It was then washed with 30 volumes of Base Buffer containing 60 mM imidazole pH 7.5 at 4° C. The protein was eluated with 5 volumes of 25 mM Tris-Cl, 300 mM NaCl, 200 mM imidazole, 10 mM 2-mercaptoethanol, pH 7.5 at 4° C. by tumbling resin with buffer end-over-end, 30 min., 4° C. The resin was captured on a 0.2 μm membrane disposable filter unit (Millipore SCGP U02 RE) and the eluate collected in the reservoir. The eluate was concentrated using a 30 k MWCO centrifugal filter device (Sartorius Vivascience Vivacell 100, VC1022), to 20 ml. It was then dialyzed overnight at 4° C., two times against 2 L of 10% glycerol, 25 mM Tris-Cl, 300 mM NaCl, 0.2 mM EDTA, 0.2 mM DTT, pH 7.5 at 4° C. The protein was filtered using a 0.22 μm disposable filter unit (Millipore SCGP00525). The protein concentration was calculated from absorbance at 280 nm, using 280=0.67 cm-1 mg-1. Yield was 235 mg, total. The protein was stored at −80° C. Human Hormone-Sensitive Lipase (HSL) Enzyme Inhibition Assay:
HSL enzyme activity was measured by a colorimetric assay using 2,3-dimercapto-1-propanol tributyrate (Aldrich, St. Louis, Mo.) as a substrate. Typically, 1.5 mM 2,3-dimercapto-1-propanol tributyrate (DMPT) in 100 mM MOPS, pH 7.2, 0.2 mg/ml fatty acid-free BSA was prepared by sonication at 4° C. to homogenous suspension. Test compounds (2 mM stock in DMSO) were diluted 3 fold in series in DMSO. Compound solutions were diluted 24 fold in 1.5 mM DMPT containing solution and 18 ul per well was added to 384-well microplates (Corning Costar). Twelve microliters per well of human HSL (15 ug/ml) was added and the reaction mixture was incubated at 37° C. for 20 minutes. Six microliters of 12 mM dithio-bis-(2-nitrobenzoic acid) (DTNB) in DMSO plus 1.2% SDS and 0.6% Triton X-100 were added and the mixture was incubated at room temperature for 15 minutes. Product production was monitored by reading absorbance at 405 nm on an Envision Reader (PerkinElmer Life and Analytical Sciences, Shelton, Conn.).
In the case of `O=C(NCc1ccccc1F)O[C@H]1CC[C@@]2(CCN(c3ccc(OC(F)(F)F)cc3)C2=O)CC1` [Example 14, (2-Fluoro-benzyl)-carbamic acid [(5α,8β)-1-oxo-2-(4-trifluoromethoxy-phenyl)-2-aza-spiro[4.5]dec-8-yl]ester], the IC50 (in general, the midpoint of a concentration-inhibition curve) worked out at 20 nM.

For `CC(C)S(=O)(=O)C[C@]1(O)CC[C@]2(CCN(c3ccc(O[C@H](C)C(F)(F)F)nc3)C2=O)CC1` [Example 324, (5α,8α)-8-Hydroxy-8-(propane-2-sulfonylmethyl)-2-[6-((R)-2,2,2-trifluoro-1-methyl-ethoxy)-pyridin-3-yl]-2-aza-spiro[4.5]decan-1-one], the half-maximal inhibitory concentration (IC50) was 20 nM. In the case of `CCc1ccc(N2CC[C@]3(CC[C@@](O)(COC)CC3)C2=O)cc1` [Example 224, (5α,8α)-2-(4-Ethyl-phenyl)-8-hydroxy-8-methoxymethyl-2-aza-spiro[4.5]decan-1-one], the 50% inhibitory concentration (IC50) is 150 nM. For the compound `CCc1ccc(CCN2CC[C@]3(CC[C@@](O)(C(C)C)CC3)C2=O)cc1` [Example 161, (5α,8α)-2-(4-Ethylphenethyl)-8-hydroxy-8-isopropyl-2-aza-spiro[4.5]decan-1-one], the 50% inhibitory concentration (IC50) came to 10 nM.

For `CC(C)(C)c1ccc(N2CC[C@]3(CC[C@@](O)(C(F)(F)F)CC3)C2=O)cc1` [Example 345, (5α,8α)-2-(4-tert-Butyl-phenyl)-8-hydroxy-8-trifluoromethyl-2-aza-spiro[4.5]decan-1-one], the IC50 came to 20 nM. For `CSC[C@]1(O)CC[C@]2(CCN(c3ccc(OCC(F)(F)F)cc3)C2=O)CC1` [Example 293, (5α,8α)-8-Hydroxy-8-methylsulfanylmethyl-2-[4-(2,2,2-trifluoro-ethoxy)-phenyl]-2-aza-spiro[4.5]decan-1-one] the value was 20 nM. Then `CCC(O)[C@H]1CC[C@]2(CCN(c3ccc(O[C@H](C)C(F)(F)F)cc3)C2=O)CC1` (stereo partly drawn) [Example 366, (5α,8α)-8-(1-Hydroxy-propyl)-2-[4-((R)-2,2,2-trifluoro-1-methyl-ethoxy)-phenyl]-2-aza-spiro[4.5]decan-1-one], with 290 nM; and `C[C@H](Oc1ccc(N2CC[C@]3(CC[C@](O)(COCC(F)F)CC3)C2=O)cc1)C(F)(F)F` [Example 298, (5α,8β)-8-(2,2-Difluoro-ethoxymethyl)-8-hydroxy-2-[4-((S)-2,2,2-trifluoro-1-methyl-ethoxy)-phenyl]-2-aza-spiro[4.5]decan-1-one], with 590 nM; and `O=C1CCC2(CC1)CCN(c1ccc(OC(F)(F)F)cc1)C2=O` [Example 54, 2-(4-Trifluoromethoxy-phenyl)-2-aza-spiro[4.5]decane-1,8-dione], with 640 nM.

Consider `CC(C)(C)c1ccc(N2CCC3(CCC(C(O)C(F)(F)F)CC3)C2=O)cc1` (single isomer, unassigned) [Example 360, (5α,8β)-2-(4-tert-Butyl-phenyl)-8-(2,2,2-trifluoro-1-hydroxy-ethyl)-2-aza-spiro[4.5]decan-1-one], for which the IC50 turned out to be 10 nM.

Consider `CC(C)C[C@]1(O)CC[C@]2(CCN(c3ccc(OC(C)C)cc3)C2=O)CC1` [Example 199, (5α,8α)-8-hydroxy-8-isobutyl-2-(4-isopropoxyphenyl)-2-aza-spiro[4.5]decan-1-one], for which the IC50 is 10 nM. With `CCCOC[C@]1(O)CC[C@]2(CCN(c3ccc(OCC(F)(F)F)cc3)C2=O)CC1` [Example 236, (5α,8α)-8-Hydroxy-8-propoxymethyl-2-[4-(2,2,2-trifluoro-ethoxy)-phenyl]-2-aza-spiro[4.5]decan-1-one], the half-maximal inhibitory concentration (IC50) is 20 nM. For `O=c1ccccn1C[C@]1(O)CC[C@]2(CCN(c3ccc(OCC(F)(F)F)cc3)C2=O)CC1` [Example 369, (5α,8α)-8-Hydroxy-8-(2-oxo-2H-pyridin-1-ylmethyl)-2-[4-(2,2,2-trifluoro-ethoxy)-phenyl]-2-aza-spiro[4.5]decan-1-one] the value was 20 nM; for `O=C1N(c2ccc(OC(F)(F)F)cc2)CC[C@]12CC[C@@](O)(Cc1ccccc1)CC2` [Example 62, (5α,8α)-8-Benzyl-8-hydroxy-2-(4-trifluoromethoxy-phenyl)-2-aza-spiro[4.5]decan-1-one], 20 nM; for `CCCCOC[C@]1(O)CC[C@@]2(CCN(c3ccc(OCC(F)(F)F)cc3)C2=O)CC1` [Example 237, (5α,8β)-8-Butoxymethyl-8-hydroxy-2-[4-(2,2,2-trifluoro-ethoxy)-phenyl]-2-aza-spiro[4.5]decan-1-one], 270 nM. Then `CC(C)(C)c1ccc(N2CC[C@]3(CC[C@@](O)(CN4CCCC4=O)CC3)C2=O)cc1` [Example 350, (5α,8α)-2-(4-tert-Butyl-phenyl)-8-hydroxy-8-(2-oxo-pyrrolidin-1-ylmethyl)-2-aza-spiro[4.5]decan-1-one], with 10 nM. `CC(C)OC[C@]1(O)CC[C@]2(CCN(c3ccc(OCC(F)(F)F)cc3)C2=O)CC1` [Example 276, (5α,8α)-8-Hydroxy-8-isopropoxymethyl-2-[4-(2,2,2-trifluoro-ethoxy)-phenyl]-2-aza-spiro[4.5]decan-1-one]: the IC50 turned out to be 10 nM. `CC(C)(C)c1ccc(N2CC[C@]3(CC[C@@](O)(COCC(F)(F)F)CC3)C2=O)cc1` [Example 347, (5α,8α)-2-(4-tert-Butyl-phenyl)-8-hydroxy-8-(2,2,2-trifluoro-ethoxymethyl)-2-aza-spiro[4.5]decan-1-one]: the IC50 was found to be 10 nM.

Regarding `CC(C)OC[C@]1(O)CC[C@]2(CCN(c3ccc(C(C)(C)C)cc3)C2=O)CC1` [Example 349, (5α,8α)-2-(4-tert-Butyl-phenyl)-8-hydroxy-8-isopropoxymethyl-2-aza-spiro[4.5]decan-1-one], the concentration for half-maximal inhibition (IC50) was 10 nM.

For the origin of these results see patent US8440710B2, “HSL inhibitors useful in the treatment of diabetes” (Hoffmann-La Roche Inc., priority 2009, dated 2013).
